Source: ChEMBL document CHEMBL5532655, “Discovery of (R)-4-(8-methoxy-2-methyl-1-(1-phenylethy)-1H-imidazo[4,5-c]quinnolin-7-yl)-3,5-dimethylisoxazole as a potent and selective BET inhibitor for treatment of acute myeloid leukemia (AML) guided by FEP calculation” (Eur J Med Chem, 2024)
Active and inactive are the calls of the source. The calls are words filed in the database; no cut-off is given here.

Assays:
[1] = target: SWI/SNF-related matrix-associated actin-dependent regulator of chromatin subfamily A member 4 (Homo sapiens) (UniProt P51532); conditions: time 30.0 min
[2] = target: Bromodomain adjacent to zinc finger domain protein 2B (Homo sapiens) (UniProt Q9UIF8); assay: Binding affinity to BAZ2B (unknown origin) using biotinylated histone peptide H4 as substrate at 1 uM incubated for 2 hrs by AlphaScreen assay relative to control
[3] = target: Transcription initiation factor TFIID subunit 1 (Homo sapiens) (UniProt P21675); conditions: time 30.0 min
MV4-11 [4] = assay: Induction of apoptosis in human MV4-11 cells assessed as upregulation of cleaved PARP expression at 0.3125 to 2.5 uM incubated for 48 hrs by Western blotting analysis; format: functional, cell-based; conditions: dose 0.3125-2.5 µM
[5] = target: SWI/SNF-related matrix-associated actin-dependent regulator of chromatin subfamily A member 2 (Homo sapiens) (UniProt P51531); assay: Binding affinity to SMARCA2 (unknown origin) using biotinylated histone peptide H4 as substrate at 1 uM incubated for 2 hrs by AlphaScreen assay relative to control
MOLM-13 = assay: cells; conditions: Homo sapiens, MOLM-13, 48 h
Description: Antiproliferative activity against human MOLM-13 cells assessed as inhibition of cell growth incubated for 48 hrs by MTT assay

[6] = target: T1, Transcription intermediary factor 1-alpha (Homo sapiens) (UniProt O15164); assay: Binding affinity to TRIM24 (unknown origin) using biotinylated histone peptide H4 as substrate at 1 uM incubated for 2 hrs by AlphaScreen assay relative to control
T1 sequence (whole entry): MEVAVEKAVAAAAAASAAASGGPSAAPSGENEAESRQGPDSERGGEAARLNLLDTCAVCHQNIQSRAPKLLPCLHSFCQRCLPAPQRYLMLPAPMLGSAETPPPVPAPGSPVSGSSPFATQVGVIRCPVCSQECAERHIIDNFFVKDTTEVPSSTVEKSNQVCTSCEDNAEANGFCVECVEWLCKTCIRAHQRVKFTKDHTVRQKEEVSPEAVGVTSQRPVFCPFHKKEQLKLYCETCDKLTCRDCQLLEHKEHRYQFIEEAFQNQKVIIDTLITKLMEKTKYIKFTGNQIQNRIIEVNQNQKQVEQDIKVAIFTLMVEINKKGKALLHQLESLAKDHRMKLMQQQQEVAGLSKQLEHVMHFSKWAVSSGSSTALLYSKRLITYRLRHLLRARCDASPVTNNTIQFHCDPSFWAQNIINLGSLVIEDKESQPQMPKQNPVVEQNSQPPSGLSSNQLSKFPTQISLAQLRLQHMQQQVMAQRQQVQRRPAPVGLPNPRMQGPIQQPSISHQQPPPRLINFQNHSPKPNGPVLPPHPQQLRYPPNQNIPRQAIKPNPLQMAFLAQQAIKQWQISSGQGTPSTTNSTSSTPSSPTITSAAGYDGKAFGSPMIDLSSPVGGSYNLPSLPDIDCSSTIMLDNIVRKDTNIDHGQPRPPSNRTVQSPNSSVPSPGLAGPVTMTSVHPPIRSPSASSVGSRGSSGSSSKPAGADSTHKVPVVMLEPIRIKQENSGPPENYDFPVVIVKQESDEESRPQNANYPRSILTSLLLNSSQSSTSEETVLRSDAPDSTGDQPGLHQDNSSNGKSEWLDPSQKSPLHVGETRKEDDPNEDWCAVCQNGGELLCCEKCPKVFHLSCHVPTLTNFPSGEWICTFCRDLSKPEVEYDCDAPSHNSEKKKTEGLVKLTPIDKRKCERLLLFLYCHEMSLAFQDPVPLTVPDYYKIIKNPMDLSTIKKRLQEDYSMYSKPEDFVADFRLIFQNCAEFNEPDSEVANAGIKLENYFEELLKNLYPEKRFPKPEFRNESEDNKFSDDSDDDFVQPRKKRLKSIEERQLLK

MV4-11 [7] = assay: Induction of apoptosis in human MV4-11 cells assessed as late apoptotic cells at 5 uM incubated for 24 hrs by annexin V-FITC/PI staining based flow cytometric analysis (reference value: 0.04 %); format: functional
[8] = target: CREB-binding protein (Homo sapiens) (UniProt Q92793); assay: Binding affinity to CREBBP (unknown origin) using biotinylated histone peptide H4 as substrate at 1 uM incubated for 2 hrs by AlphaScreen assay relative to control
[9] = Oral bioavailability in Sprague-Dawley rat at 10 mg/kg measured upto 24 hrs by LC-MS/MS analysis; format: ADME, organism-based; conditions: in vivo
Peregrin (Homo sapiens) = target: T2, Peregrin (Homo sapiens) (UniProt P55201); conditions: time 30.0 min
T2 sequence (whole entry): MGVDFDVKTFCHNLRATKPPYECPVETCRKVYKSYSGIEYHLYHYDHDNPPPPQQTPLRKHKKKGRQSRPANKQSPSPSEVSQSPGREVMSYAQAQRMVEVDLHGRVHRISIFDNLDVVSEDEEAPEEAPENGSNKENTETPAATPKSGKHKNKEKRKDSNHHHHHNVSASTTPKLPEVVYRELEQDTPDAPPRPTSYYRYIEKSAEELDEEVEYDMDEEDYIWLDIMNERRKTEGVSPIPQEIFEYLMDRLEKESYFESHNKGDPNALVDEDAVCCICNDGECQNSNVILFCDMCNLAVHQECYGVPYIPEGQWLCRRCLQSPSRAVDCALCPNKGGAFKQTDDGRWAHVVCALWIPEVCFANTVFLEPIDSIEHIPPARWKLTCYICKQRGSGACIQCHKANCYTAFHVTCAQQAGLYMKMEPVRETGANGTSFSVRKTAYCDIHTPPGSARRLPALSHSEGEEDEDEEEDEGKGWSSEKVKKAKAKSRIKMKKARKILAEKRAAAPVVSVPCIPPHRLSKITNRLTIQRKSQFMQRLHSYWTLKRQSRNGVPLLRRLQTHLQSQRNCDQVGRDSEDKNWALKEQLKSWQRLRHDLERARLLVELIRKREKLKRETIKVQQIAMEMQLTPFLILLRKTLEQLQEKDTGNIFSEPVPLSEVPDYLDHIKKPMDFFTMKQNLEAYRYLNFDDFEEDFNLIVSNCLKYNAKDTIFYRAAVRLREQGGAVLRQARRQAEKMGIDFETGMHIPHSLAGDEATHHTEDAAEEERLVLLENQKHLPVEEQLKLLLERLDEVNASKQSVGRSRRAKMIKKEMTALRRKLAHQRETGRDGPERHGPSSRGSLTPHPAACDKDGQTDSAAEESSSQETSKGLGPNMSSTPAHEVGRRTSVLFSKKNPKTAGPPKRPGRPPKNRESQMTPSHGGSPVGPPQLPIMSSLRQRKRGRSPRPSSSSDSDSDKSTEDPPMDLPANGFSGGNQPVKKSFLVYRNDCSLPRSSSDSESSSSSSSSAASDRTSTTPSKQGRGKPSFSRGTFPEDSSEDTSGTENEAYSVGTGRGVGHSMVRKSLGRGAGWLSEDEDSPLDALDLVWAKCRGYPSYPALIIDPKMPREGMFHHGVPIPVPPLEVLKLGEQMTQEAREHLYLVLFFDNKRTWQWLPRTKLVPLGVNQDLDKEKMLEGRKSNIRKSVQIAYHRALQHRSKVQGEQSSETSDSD

Chain of SWI/SNF-related matrix-associated actin-dependent regulator of chromatin subfamily A member 4 (Homo sapiens) (P51532 whole entry, the tested form may be a part): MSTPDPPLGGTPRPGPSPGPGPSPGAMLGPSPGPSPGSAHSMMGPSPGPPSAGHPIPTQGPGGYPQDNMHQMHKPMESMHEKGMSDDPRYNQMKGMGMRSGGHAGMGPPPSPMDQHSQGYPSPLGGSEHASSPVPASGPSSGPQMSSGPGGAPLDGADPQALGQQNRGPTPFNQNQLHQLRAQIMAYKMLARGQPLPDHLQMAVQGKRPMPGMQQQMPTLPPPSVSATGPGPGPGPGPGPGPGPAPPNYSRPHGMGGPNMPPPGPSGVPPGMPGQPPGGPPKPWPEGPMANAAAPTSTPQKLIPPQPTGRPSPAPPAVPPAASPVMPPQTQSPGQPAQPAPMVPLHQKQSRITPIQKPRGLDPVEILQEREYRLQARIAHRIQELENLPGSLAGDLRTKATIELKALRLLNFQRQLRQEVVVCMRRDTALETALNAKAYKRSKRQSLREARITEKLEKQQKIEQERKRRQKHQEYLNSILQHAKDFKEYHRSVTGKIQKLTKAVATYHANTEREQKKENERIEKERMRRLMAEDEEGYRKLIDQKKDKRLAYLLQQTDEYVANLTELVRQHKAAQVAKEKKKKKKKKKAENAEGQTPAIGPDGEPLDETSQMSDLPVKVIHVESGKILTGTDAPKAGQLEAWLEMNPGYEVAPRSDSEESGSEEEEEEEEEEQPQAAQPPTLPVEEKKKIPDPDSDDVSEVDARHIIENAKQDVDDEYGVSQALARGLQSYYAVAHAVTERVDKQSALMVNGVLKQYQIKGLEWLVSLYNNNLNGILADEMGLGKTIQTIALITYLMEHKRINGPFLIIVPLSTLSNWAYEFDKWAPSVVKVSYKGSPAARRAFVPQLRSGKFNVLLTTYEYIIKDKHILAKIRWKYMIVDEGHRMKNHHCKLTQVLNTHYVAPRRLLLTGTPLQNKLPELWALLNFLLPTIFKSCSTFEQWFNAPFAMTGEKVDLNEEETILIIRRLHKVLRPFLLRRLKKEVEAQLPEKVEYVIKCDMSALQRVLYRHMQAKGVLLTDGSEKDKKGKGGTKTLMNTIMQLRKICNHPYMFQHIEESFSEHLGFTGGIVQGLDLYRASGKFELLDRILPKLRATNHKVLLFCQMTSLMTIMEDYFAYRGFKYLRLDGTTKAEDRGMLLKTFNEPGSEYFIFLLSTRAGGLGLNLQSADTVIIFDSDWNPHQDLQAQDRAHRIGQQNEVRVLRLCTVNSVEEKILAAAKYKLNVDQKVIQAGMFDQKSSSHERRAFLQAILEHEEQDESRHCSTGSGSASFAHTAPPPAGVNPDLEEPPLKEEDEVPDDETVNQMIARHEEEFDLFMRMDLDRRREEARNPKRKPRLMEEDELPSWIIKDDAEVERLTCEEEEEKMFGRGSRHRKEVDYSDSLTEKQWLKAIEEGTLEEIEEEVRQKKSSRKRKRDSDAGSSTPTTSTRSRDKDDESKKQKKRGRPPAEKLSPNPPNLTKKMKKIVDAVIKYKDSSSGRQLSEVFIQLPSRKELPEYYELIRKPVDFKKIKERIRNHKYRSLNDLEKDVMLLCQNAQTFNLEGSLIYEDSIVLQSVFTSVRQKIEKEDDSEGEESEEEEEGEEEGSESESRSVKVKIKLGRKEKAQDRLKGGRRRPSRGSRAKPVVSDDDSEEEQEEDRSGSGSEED
Chain of SWI/SNF-related matrix-associated actin-dependent regulator of chromatin subfamily A member 2 (Homo sapiens) (P51531 whole entry): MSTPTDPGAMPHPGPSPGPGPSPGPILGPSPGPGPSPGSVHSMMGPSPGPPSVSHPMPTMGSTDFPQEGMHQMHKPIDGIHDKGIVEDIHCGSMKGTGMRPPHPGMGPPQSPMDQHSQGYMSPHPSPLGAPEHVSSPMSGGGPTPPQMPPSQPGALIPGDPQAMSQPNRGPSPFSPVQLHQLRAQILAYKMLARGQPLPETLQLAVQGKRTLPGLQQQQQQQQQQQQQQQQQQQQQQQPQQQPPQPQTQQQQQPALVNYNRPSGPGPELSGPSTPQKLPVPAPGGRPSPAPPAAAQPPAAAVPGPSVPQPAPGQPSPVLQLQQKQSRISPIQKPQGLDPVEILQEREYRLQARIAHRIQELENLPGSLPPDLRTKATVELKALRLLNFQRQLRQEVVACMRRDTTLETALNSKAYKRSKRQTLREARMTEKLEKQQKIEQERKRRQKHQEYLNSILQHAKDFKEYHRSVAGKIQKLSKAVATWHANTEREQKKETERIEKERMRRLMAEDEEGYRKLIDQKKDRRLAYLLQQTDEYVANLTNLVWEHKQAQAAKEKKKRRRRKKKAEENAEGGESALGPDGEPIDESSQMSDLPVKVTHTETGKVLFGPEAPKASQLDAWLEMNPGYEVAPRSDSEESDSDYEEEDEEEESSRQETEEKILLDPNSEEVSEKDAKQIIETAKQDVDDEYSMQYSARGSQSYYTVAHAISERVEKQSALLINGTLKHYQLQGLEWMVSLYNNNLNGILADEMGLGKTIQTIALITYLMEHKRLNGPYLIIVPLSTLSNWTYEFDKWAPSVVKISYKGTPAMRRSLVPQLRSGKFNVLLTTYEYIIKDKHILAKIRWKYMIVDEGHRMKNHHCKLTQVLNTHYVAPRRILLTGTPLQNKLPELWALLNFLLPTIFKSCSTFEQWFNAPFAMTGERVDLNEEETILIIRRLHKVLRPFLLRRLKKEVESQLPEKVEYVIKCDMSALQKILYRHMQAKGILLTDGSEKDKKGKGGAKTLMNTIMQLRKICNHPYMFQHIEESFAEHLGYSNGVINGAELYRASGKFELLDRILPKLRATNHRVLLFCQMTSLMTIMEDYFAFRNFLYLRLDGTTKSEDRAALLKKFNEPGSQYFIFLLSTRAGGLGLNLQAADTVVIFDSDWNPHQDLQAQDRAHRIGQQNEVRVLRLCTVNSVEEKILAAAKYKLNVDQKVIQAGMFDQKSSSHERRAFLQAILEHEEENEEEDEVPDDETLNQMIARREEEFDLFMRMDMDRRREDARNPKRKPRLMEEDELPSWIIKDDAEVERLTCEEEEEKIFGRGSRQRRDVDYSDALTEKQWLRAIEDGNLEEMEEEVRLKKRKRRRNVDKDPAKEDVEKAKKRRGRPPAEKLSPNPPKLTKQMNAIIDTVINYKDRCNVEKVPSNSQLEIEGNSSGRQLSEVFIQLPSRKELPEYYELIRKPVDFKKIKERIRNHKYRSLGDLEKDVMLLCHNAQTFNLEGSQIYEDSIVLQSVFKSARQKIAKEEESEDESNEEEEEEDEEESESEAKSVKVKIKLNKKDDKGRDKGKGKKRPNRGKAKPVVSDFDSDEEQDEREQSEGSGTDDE
Chain of Transcription initiation factor TFIID subunit 1 (Homo sapiens) (P21675 whole entry): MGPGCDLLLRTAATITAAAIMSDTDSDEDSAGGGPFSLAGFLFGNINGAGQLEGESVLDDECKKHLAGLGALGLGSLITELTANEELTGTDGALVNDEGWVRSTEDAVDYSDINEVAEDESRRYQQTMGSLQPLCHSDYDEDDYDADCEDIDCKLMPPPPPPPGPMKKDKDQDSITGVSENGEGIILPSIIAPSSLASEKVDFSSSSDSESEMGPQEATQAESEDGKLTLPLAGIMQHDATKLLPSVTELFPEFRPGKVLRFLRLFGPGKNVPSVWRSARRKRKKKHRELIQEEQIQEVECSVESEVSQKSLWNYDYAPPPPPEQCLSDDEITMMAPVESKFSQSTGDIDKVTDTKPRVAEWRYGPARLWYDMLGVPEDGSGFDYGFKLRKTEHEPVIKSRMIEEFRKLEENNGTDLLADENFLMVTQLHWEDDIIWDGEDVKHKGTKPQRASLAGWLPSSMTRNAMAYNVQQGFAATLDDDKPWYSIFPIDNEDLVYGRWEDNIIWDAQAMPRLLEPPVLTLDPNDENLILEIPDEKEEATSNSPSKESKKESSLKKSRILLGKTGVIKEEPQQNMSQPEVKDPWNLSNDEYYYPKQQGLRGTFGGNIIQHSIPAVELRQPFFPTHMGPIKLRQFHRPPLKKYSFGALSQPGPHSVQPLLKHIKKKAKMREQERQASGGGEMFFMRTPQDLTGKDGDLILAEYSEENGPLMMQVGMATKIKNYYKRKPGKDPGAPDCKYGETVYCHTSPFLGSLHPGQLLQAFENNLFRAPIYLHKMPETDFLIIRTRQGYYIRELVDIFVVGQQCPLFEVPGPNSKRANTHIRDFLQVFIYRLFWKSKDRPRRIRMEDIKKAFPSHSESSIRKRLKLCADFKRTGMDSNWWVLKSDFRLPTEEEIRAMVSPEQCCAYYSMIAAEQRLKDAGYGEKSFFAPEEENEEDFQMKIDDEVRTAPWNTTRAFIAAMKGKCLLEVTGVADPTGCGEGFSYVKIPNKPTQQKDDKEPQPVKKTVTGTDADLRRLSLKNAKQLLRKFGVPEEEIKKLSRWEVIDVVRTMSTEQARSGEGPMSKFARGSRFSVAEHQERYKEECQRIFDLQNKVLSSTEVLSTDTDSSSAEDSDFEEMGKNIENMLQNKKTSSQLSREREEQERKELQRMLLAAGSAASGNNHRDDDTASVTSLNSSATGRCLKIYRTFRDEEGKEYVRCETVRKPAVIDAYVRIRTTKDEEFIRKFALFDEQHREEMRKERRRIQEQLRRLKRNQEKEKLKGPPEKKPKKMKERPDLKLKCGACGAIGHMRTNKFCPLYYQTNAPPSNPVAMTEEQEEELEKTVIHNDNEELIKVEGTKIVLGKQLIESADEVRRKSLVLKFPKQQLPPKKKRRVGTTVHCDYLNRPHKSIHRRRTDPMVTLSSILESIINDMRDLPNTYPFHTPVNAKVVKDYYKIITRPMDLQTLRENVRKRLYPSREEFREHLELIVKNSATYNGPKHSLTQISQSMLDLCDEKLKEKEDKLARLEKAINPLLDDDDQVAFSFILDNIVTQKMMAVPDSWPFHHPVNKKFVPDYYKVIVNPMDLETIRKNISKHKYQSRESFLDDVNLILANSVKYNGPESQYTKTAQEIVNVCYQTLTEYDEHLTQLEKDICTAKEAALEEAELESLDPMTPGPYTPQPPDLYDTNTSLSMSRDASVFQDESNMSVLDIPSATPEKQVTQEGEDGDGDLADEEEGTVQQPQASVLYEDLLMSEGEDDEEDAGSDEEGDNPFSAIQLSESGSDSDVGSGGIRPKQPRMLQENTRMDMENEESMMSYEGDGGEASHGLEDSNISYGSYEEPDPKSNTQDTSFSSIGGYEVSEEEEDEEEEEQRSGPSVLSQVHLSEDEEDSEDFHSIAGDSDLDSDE

Row | Structure (SMILES) | ΔTm [1] [°C] | Activity [2] [%] | ΔTm [3] [°C] | Activity (MV4-11 [4]) | Activity [5] [%] | IC50 (MOLM-13) [nM] | Activity [6] [%] | Activity (MV4-11 [7]) [%] | Activity [8] [%] | bioavailability [9] [%] | ΔTm (Peregrin (Homo sapiens)) [°C]
1 | COc1cc2c(cc1-c1c(C)noc1C)ncc1nc(C)n([C@H](C)c3ccccc3)c12 | 0 | < 30 | 0 | Active | < 30 | 430 | < 30 | 12.62 | 50 | 114 | 0
2 | COc1cc2c(cc1-c1c(C)n[nH]c1C)ncc1nc(C)n([C@H](C)c3ccccc3)c12 | 0 | < 30 | 0 | – | < 30 | 660 | < 30 | – | < 30 | – | 0
